Drawing on patent US20090221619A1, “NOVEL MATERIALS AND METHODS FOR THE PRODUCTION THEREOF” (SYNGENTA CROP PROTECTION, INC., priority 2005, published 2009), this text covers EC95, MIC and inhibition for 5 compounds.

Holding throughout (assay type): cell-based
In assay [1] the test system is Aureobasidium pullulans. As to the kind of experiment: MIC value generation: liquid culture assay on 24 well plates, solo ai. The following applies: A. pullulans; for EC95: concentration for 95% activity estimated from graph; for MIC: Aureobasidium pullulans, rates 0-100 mg ai/l, mean values of n = 5, read-out: MIC Minimal inhibition concentration. As to the method: (§1) Stachybotrys chartarum, and Aureobasidium pullulans were separately cultivated on PDA media to […] sporulation. Spore suspensions were produced for each fungi.
(§2) Test method used: liquid culture assay on 24 well plates.
(§3) For solo (i.e. single) ai testing the formulated fungicide (100 ul) was filled into the 24 well plates (8 different rates: 100-0.05 mg ai/l final volume as described above) and 100 ul distilled water was added. Afterwards 800 ul of 0.3% PDA media was added to the plate. The spore suspension of the specific fungi was added to this media in advance containing approx. 100.000 spores/ml. The 24 well plates were sealed and incubated at 24° C.
(§4) Dependent on the growth prosperities of each organisms, the evaluation was done after 3 to 6 days, when the surface of the check well was covered with mycelium. The evaluation was performed by assessing the growth of the fungi related to the check growth. The results are expressed as % activity relative to the check (values of 0-100% growth). Afterwards the results were converted in % growth inhibition. EC95 values and also MIC (minimal inhibition concentration) values were derived for each compound.
(§5) For each solo compound a graph was drawn of percentage inhibition against the concentration of the fungicide. From this graph the concentration of the fungicide required to achieve 95% activity was estimated. Also the concentration that gave the minimum inhibition concentration was derived as MIC value.

In assay [2] the test system is Stachybotrys chartarum. The description is as above. As to conditions: S. chartarum; for EC95: concentration for 95% activity estimated from graph; for MIC: Stachybotrys chartarum, rates 0-100 mg ai/l, mean values of n = 5, read-out: MIC Minimal inhibition concentration. As to the method: as §1, §2, §3, §4, §5
The test system of assay [3] is Aureobasidium pullulans. In words: Synergy testing of 2 way mixtures, liquid culture on 24 well plates (Colby). The following applies: A. pullulans; for inhibition at 50 µg/mL: CDL 50 mg ai/l; for inhibition at 100 µg/mL: CDL 100 mg ai/l. How it is done: (§6) For synergism testing of the 2 way mixtures 100 ul of each fungicide were filled into the 24 well plates (8 different rates) and 800 ul of 0.3% PDA media containing the spore suspension was added (see above). Different ratios of the 2 fungicide rates were tested at the same time.
(§7) Stachybotrys chartarum and Aureobasidium pullulans were separately cultivated on PDA media to […] sporulation. Spore suspensions were produced for each fungi.
(§8) For the mixtures of different fungicides the synergism was calculated based on the Colby equation, which is described below: […]
(§9) The fungicidal action to be expected, We, for a given combination of two fungicides can be calculated as follows (see COLBY, S. R. “Calculating synergistic and antagonistic response of herbicide combinations”. Weeds 15, pages 20-22; 1967):
(§10) wherein: X=% activity in the case of treatment with the compound of formula I at rate x, in comparison with untreated control (=0%). Y=% activity in the case of treatment with a compound of formula II at rate y, in comparison with untreated control. We=expected activity (% activity in comparison with untreated control) after treatment with the compound of formula I and a compound of formula II at a rate of x+y kg of active ingredient.
(§11) If the activity actually observed is greater than the expected value We, there is a synergistic effect.
(§12) All rates below are expressed as mg ai/l (i.e. ppm).

Assay [4] has as its system Stachybotrys chartarum. Described as above. The following applies: S. chartarum. As to the method:
as §6, §7, §8, §9, §10, §11, §12

The mark [5] stands for this setting: CDL 12.5 mg ai/l, PPZ table, read-out: inh % (CDL alone).
Where [6] appears, read: CCZ table, read-out: inh % (CDL alone).
Where [7] appears, read: DFZ table, read-out: inh % (CDL alone).
Setting [8] is: PPZ table, read-out: inh % (CDL alone).
The mark [9] stands for this setting: TBZ table, read-out: inh % (CDL alone).
Where [10] appears, read: PPZ 3.1 mg ai/l, read-out: inh % (PPZ alone).

Values after ≈ are worked out from the molar mass of the structure shown. Where two headings read alike, the source gives them in different places. Bounds are passed on as bounds.

Regarding `CC(C1CC1)C(O)(Cn1cncn1)c1ccc(Cl)cc1` (stereo not drawn) [CCZ, Cyproconazole], the EC95 in the assay with Aureobasidium pullulans [1] is recorded as 6.5 mg ai/l; in the assay with Stachybotrys chartarum [2], above 100 mg ai/l. In addition, the MIC is 12.5 µg/mL (≈ 42.8 µM) in the assay with Aureobasidium pullulans [1] and above 100 µg/mL with Stachybotrys chartarum [2]. In the assay on Aureobasidium pullulans [3] (CCZ 1.6 mg ai/l, read-out: inh % (CCZ alone)), the inhibition at 1.6 µg/mL turned out to be 70%. Further, the inhibition at 3.1 µg/mL in the assay on Aureobasidium pullulans [3] (CCZ 3.1 mg ai/l, read-out: inh % (CCZ alone)) was 90%. Moreover, in the assay with Stachybotrys chartarum [4] (CCZ 100 mg ai/l, read-out: inh % (CCZ alone)), the inhibition at 100 µg/mL amounted to 50%.

Regarding `Cc1cc(C2CC2)nc(Nc2ccccc2)n1` [CDL, Cyprodinil], the figures for the EC95 with Aureobasidium pullulans [1] and in the assay with Stachybotrys chartarum [2] were above 100 mg ai/l and 46 mg ai/l, respectively. The MIC in the assay with Aureobasidium pullulans [1] was above 100 µg/mL; with Stachybotrys chartarum [2], 50 µg/mL (≈ 222 µM). Besides, the inhibition at 0.8 µg/mL with Aureobasidium pullulans [3] (CDL 0.8 mg ai/l, DFZ table, read-out: inh % (CDL alone)) was 0%. Further, the inhibition at 1.6 µg/mL amounted to 10% in the assay on Aureobasidium pullulans [3] (CDL 1.6 mg ai/l, CCZ table, read-out: inh % (CDL alone)); 10% in the assay on Aureobasidium pullulans [3] (CDL 1.6 mg ai/l, DFZ table, read-out: inh % (CDL alone)); 10% in the assay on Aureobasidium pullulans [3] (CDL 1.6 mg ai/l, PPZ table, read-out: inh % (CDL alone)); 10% in the assay with Aureobasidium pullulans [3] (CDL 1.6 mg ai/l, TBZ table, read-out: inh % (CDL alone)). For the same compound, the inhibition at 3.1 µg/mL with Aureobasidium pullulans [3] (CDL 3.1 mg ai/l, DFZ table, read-out: inh % (CDL alone)) came to 10%; with Aureobasidium pullulans [3] (CDL 3.1 mg ai/l, PPZ table, read-out: inh % (CDL alone)), 10%; with Aureobasidium pullulans [3] (CDL 3.1 mg ai/l, TBZ table, read-out: inh % (CDL alone)), 10%; in the assay with Stachybotrys chartarum [4] (CDL 3.1 mg ai/l, CCZ table, read-out: inh % (CDL alone)), 0%. For the same compound, the inhibition at 12.5 µg/mL came to 30% in the assay with Aureobasidium pullulans [3] (CDL 12.5 mg ai/l, CCZ table, read-out: inh % (CDL alone)); 30% in the assay on Aureobasidium pullulans [3] (CDL 12.5 mg ai/l, DFZ table, read-out: inh % (CDL alone)); 30% in the assay on Aureobasidium pullulans [3] (setting [5]); 30% in the assay on Aureobasidium pullulans [3] (CDL 12.5 mg ai/l, TBZ table, read-out: inh % (CDL alone)); 70% with Stachybotrys chartarum [4] (setting [5]). Further, the inhibition at 50 µg/mL in the assay with Aureobasidium pullulans [3] (setting [6]) was 30%; in the assay with Aureobasidium pullulans [3] (setting [7]) it was 30%; in the assay with Aureobasidium pullulans [3] (setting [8]), 30%; in the assay with Aureobasidium pullulans [3] (setting [9]), 50%. For the same compound, the inhibition at 100 µg/mL in the assay on Aureobasidium pullulans [3] (setting [6]) came to 30%; in the assay with Aureobasidium pullulans [3] (setting [7]), 30%; in the assay on Aureobasidium pullulans [3] (setting [8]) it was 30%; in the assay on Aureobasidium pullulans [3] (setting [9]) it was 50%.

On to `CC1COC(Cn2cncn2)(c2ccc(Oc3ccc(Cl)cc3)cc2Cl)O1` (stereo not drawn) [DFZ, Difenoconazole], for which the EC95 was 8 mg ai/l with Aureobasidium pullulans [1] and 2.7 mg ai/l in the assay on Stachybotrys chartarum [2]. In addition, the MIC amounted to 12.5 µg/mL (≈ 30.8 µM) in the assay with Aureobasidium pullulans [1] and 3.1 µg/mL (≈ 7.63 µM) in the assay with Stachybotrys chartarum [2]. Further, the inhibition at 0.8 µg/mL in the assay with Aureobasidium pullulans [3] (DFZ 0.8 mg ai/l, read-out: inh % (DFZ alone)) was 90%. In addition, the inhibition at 1.6 µg/mL in the assay with Aureobasidium pullulans [3] (DFZ 1.6 mg ai/l, read-out: inh % (DFZ alone)) came out at 90%. Also, the inhibition at 3.1 µg/mL in the assay with Aureobasidium pullulans [3] (DFZ 3.1 mg ai/l, read-out: inh % (DFZ alone)) is 70%.

With `CCCC1COC(Cn2cncn2)(c2ccc(Cl)cc2Cl)O1` (stereo not drawn) [PPZ, Propiconazole], the EC95 in the assay with Aureobasidium pullulans [1] is 36 mg ai/l; with Stachybotrys chartarum [2] it was above 100 mg ai/l. The MIC in the assay on Aureobasidium pullulans [1] is 50 µg/mL (≈ 146 µM); in the assay on Stachybotrys chartarum [2], above 100 µg/mL. The figures for the inhibition at 3.1 µg/mL in the assay on Aureobasidium pullulans [3] (setting [10]) and in the assay with Stachybotrys chartarum [4] (setting [10]) were 70% and 10%, respectively. For the same compound, the inhibition at 12.5 µg/mL in the assay on Aureobasidium pullulans [3] (PPZ 12.5 mg ai/l, read-out: inh % (PPZ alone)) came to 70%. Besides, the inhibition at 0.2 µg/mL in the assay with Stachybotrys chartarum [4] (PPZ 0.2 mg ai/l, read-out: inh % (PPZ alone)) was 0%. For the same compound, in the assay on Stachybotrys chartarum [4] (PPZ 1.6 mg ai/l, read-out: inh % (PPZ alone)), the inhibition at 1.6 µg/mL stood at 0%.

Take `c1ccc2[nH]c(-c3cscn3)nc2c1` [TBZ, Thiabendazole]: the EC95 in the assay with Aureobasidium pullulans [1] was 15 mg ai/l; in the assay on Stachybotrys chartarum [2], 46 mg ai/l. In addition, the MIC with Aureobasidium pullulans [1] and in the assay with Stachybotrys chartarum [2] was 50 µg/mL (≈ 248 µM) in each case. For the same compound, the inhibition at 12.5 µg/mL in the assay with Aureobasidium pullulans [3] (TBZ 12.5 mg ai/l, read-out: inh % (TBZ alone)) was determined as 90%.
